# Assay results reported in patent US10111890B2, “9-aminomethyl minocycline compounds and uses thereof” (Paratek Pharmaceuticals, Inc., priority 2016, dated 2018).
# Several values for one entry are separate records, joined by “and”; a condition that tells them apart may be missing. Equal entries are not always repeated.
# How the values were obtained:
# ABSSSI = experiment: Earlier Phase 3 i.v.-to-oral omadacycline vs linezolid study in ABSSSI: clinical success; assay type: in vivo, human; settings: i.v. with switch to oral
# [1] = test system: ABSSSI known or suspected to be due to Gram-positive pathogens; experiment: Phase 3 oral omadacycline vs oral linezolid in ABSSSI: Early Clinical Response 48-72 hours after first dose; assay type: in vivo, human; settings: for Early Clinical Success, %: micro-mITT, % of N1; for Difference (95% CI) in Early Clinical Success rate: omadacycline minus linezolid
# [2] = 48-72 hours after first dose, mITT population
# [3] = Cellulitis/erysipelas, actual type, 48-72 hours, mITT
# [4] = Cellulitis/erysipelas, as randomized, 48-72 hours, mITT
# [5] = Major Abscess, actual type, 48-72 hours, mITT
# [6] = Major Abscess, as randomized, 48-72 hours, mITT
# [7] = Wound Infection, actual type, 48-72 hours, mITT
# [8] = Wound Infection, as randomized, 48-72 hours, mITT
smiles,measurement,setting,value
"CN(C)c1cc(CNCC(C)(C)C)c(O)c2c1C[C@H]1C[C@H]3[C@H](N(C)C)C(O)=C(C(N)=O)C(=O)[C@@]3(O)C(O)=C1C2=O [Omadacycline, 9-[(2,2-dimethyl-propylamino)-methyl]-minocycline]",clinical success based on investigator's assessment of clinical response,ABSSSI; 7-14 days after the last dose,86.1%
same,clinical success based on a reduction of lesion size,"ABSSSI; 48-72 hours after the first dose, FDA primary analysis population (N=627)",84.8%
same,non-inferiority to linezolid,ABSSSI; 7-14 days,non-inferior
same,"Difference (95% CI) in Early Clinical Success rate, omadacycline minus linezolid",[1]; [2],"5.0% and 5.0 (−0.2, 10.3) %"
same,Early Clinical Response: Clinical Failure,[1]; [2],26 (7.2) n (%)
same,Early Clinical Response: Clinical Failure or Indeterminate,[1]; [2],45 (12.5) n (%)
same,Early Clinical Response: Indeterminate,[1]; [2],19 (5.3) n (%)
same,Early Clinical Response: Clinical Success,"[1]; 48-72 hours after first dose, mITT population (N = 360 per arm)",315 (87.5) n (%)
same,Early Clinical Response: Clinical Success,"[1]; Cellulitis/erysipelas, actual type of infection, 48-72 hours, mITT",68 (79.1) n (%)
same,Early Clinical Response: Clinical Failure,[1]; [3],8 (9.3) n (%)
same,Early Clinical Response: Clinical Failure or Indeterminate,[1]; [3],18 (20.9) n (%)
same,Early Clinical Response: Indeterminate,[1]; [3],10 (11.6) n (%)
same,Early Clinical Response: Clinical Failure,[1]; [4],8 (9.8) n (%)
same,Early Clinical Response: Clinical Failure or Indeterminate,[1]; [4],17 (20.7) n (%)
same,Early Clinical Response: Indeterminate,[1]; [4],9 (11.0) n (%)
same,Early Clinical Response: Clinical Success,"[1]; Cellulitis/erysipelas, type of infection as randomized, 48-72 hours, mITT",65 (79.3) n (%)
same,Early Clinical Response: Clinical Success,"[1]; Major Abscess, actual type of infection, 48-72 hours, mITT",60 (93.8) n (%)
same,Early Clinical Response: Clinical Failure,[1]; [5],1 (1.6) n (%)
same,Early Clinical Response: Clinical Failure or Indeterminate,[1]; [5],4 (6.3) n (%)
same,Early Clinical Response: Indeterminate,[1]; [5],3 (4.7) n (%)
same,Early Clinical Response: Clinical Failure,[1]; [6],1 (1.6) n (%)
same,Early Clinical Response: Clinical Failure or Indeterminate,[1]; [6],4 (6.3) n (%)
same,Early Clinical Response: Indeterminate,[1]; [6],3 (4.7) n (%)
same,Early Clinical Response: Clinical Success,"[1]; Major Abscess, type of infection as randomized, 48-72 hours, mITT",60 (93.8) n (%)
same,Early Clinical Response: Clinical Success,"[1]; Wound Infection, actual type of infection, 48-72 hours, mITT",187 (89.0) n (%)
same,Early Clinical Response: Clinical Failure,[1]; [7],17 (8.1) n (%)
same,Early Clinical Response: Clinical Failure or Indeterminate,[1]; [7],23 (11.0) n (%)
same,Early Clinical Response: Indeterminate,[1]; [7],6 (2.9) n (%)
same,Early Clinical Response: Clinical Failure,[1]; [8],17 (7.9) n (%)
same,Early Clinical Response: Clinical Failure or Indeterminate,[1]; [8],24 (11.2) n (%)
same,Early Clinical Response: Indeterminate,[1]; [8],7 (3.3) n (%)
same,Early Clinical Response: Clinical Success,"[1]; Wound Infection, type of infection as randomized, 48-72 hours, mITT",190 (88.8) n (%)
same,"Early Clinical Success, %","[1]; baseline pathogen Clostridium perfringens, 48-72 hours after first dose",(100.0) %
same,"Early Clinical Success, %","[1]; baseline pathogen Enterobacter cloacae, 48-72 hours after first dose",(100.0) %
same,"Early Clinical Success, %","[1]; baseline pathogen Enterococcus faecalis VSE, 48-72 hours after first dose",(85.7) %
same,"Early Clinical Success, %","[1]; baseline pathogen Enterococcus faecalis, 48-72 hours after first dose",(87.5) %
same,"Early Clinical Success, %","[1]; baseline pathogen Enterococcus faecium VSE, 48-72 hours after first dose",(100.0) %
same,"Early Clinical Success, %","[1]; baseline pathogen Enterococcus faecium, 48-72 hours after first dose",(100.0) %
same,"Early Clinical Success, %","[1]; baseline pathogen Escherichia coli, 48-72 hours after first dose",(100.0) %
same,"Early Clinical Success, %","[1]; baseline pathogen Finegoldia magna, 48-72 hours after first dose",(66.7) %
same,"Early Clinical Success, %","[1]; baseline pathogen Klebsiella pneumoniae, 48-72 hours after first dose",(80.0) %
same,"Early Clinical Success, %","[1]; baseline pathogen MRSA, 48-72 hours after first dose",(93.3) %
same,"Early Clinical Success, %","[1]; baseline pathogen MSSA, 48-72 hours after first dose",(84.2) %
same,"Early Clinical Success, %","[1]; baseline pathogen Prevotella denticola, 48-72 hours after first dose",(100.0) %
same,"Early Clinical Success, %","[1]; baseline pathogen Prevotella melaninogenica, 48-72 hours after first dose",(100.0) %
same,"Early Clinical Success, %","[1]; baseline pathogen Staphylococcus aureus, 48-72 hours after first dose",(88.2) %
same,"Early Clinical Success, %","[1]; baseline pathogen Staphylococcus lugdunensis, 48-72 hours after first dose",(80.0) %
same,"Early Clinical Success, %","[1]; baseline pathogen Streptococcus agalactiae, 48-72 hours after first dose",(50.0) %
same,"Early Clinical Success, %","[1]; baseline pathogen Streptococcus anginosus group, 48-72 hours after first dose",(94.7) %
same,"Early Clinical Success, %","[1]; baseline pathogen Streptococcus anginosus, 48-72 hours after first dose",(100.0) %
same,"Early Clinical Success, %","[1]; baseline pathogen Streptococcus constellatus, 48-72 hours after first dose",(88.9) %
same,"Early Clinical Success, %","[1]; baseline pathogen Streptococcus intermedius, 48-72 hours after first dose",(91.3) %
same,"Early Clinical Success, %","[1]; baseline pathogen Streptococcus mitis, 48-72 hours after first dose",(100.0) %
same,"Early Clinical Success, %","[1]; baseline pathogen Streptococcus pyogenes, 48-72 hours after first dose",(82.8) %
same,"Early Clinical Success, %","[1]; baseline pathogen Streptococcus viridans group, 48-72 hours after first dose",(100.0) %
same,Difference (95% CI) in Early Clinical Success rate,"[1]; Cellulitis/erysipelas, actual type, mITT","1.7 (−10.8, 14.3)"
same,Difference (95% CI) in Early Clinical Success rate,"[1]; Cellulitis/erysipelas, as randomized, mITT","1.9 (−10.8, 14.5)"
same,Difference (95% CI) in Early Clinical Success rate,"[1]; Major Abscess, actual type, mITT","5.0 (−5.4, 16.2)"
same,Difference (95% CI) in Early Clinical Success rate,"[1]; Major Abscess, as randomized, mITT","5.0 (−5.4, 16.2)"
